Reference: patent publication US9107879B1, “Methods of increasing the cytotoxicity of chemotherapeutic agents with multisubstrate inhibitors of histone, protein-lys, polyamine acetylation, and polyamine metabolism” (Vanderbilt University, priority 2010, dated 2015)

Columns and labels:
H358 lung cancer cells = assay: 96-well MTS cell viability assay; format: cell-based
Protocol: Control cells were left untreated. […] Control cells were left untreated.
Cells were given fresh inhibitor on the first, second, and third days of treatment and viability was measured on the 4th day (i.e. 3 days post start of treatment).
(A) Structure of compound 2a. […] Averages of duplicate samples with standard deviations are shown.
(A) Structure of Spd-3a. (B) Western analysis of histone H3K9-acetylation and total histone H3, measured in control, untreated H358 lung cancer cells “C’ or in H358 cells incubated 12 hours in the presence of 50 μM Spd-2a or Spd-3a. Each lane represents 60 μg cellular protein. (C) [3H]-thymidine incorporation (counts per minute) into DNA of H358 cells during a 6 hour pulse beginning at 42 hours post-start of treatment. Treatments were as follows (bars 1-6 left to right): (1) control: no treatment; (2) CPT alone: 5 nM 18 hours; (3) 3a alone: 50 μM; (4-6) 3a+CPT: CPT (5 nm, 18 hours)+3a at indicated dose. After 18 hours, CPT was removed and medium was replaced with fresh medium containing Spd-3a at the indicated dose. Each bar represents the average of triplicates. (D) 3-day 96-well viability assay of H358 cells grown in the presence of increasing amounts of Spd-2a or Spd-3a, with or without CPT (5 nM 18 hours). […] Each data point represents the average of three wells.
Cells were plated in 96-well plates at 2000 cells per well and treated with the indicated doses of spd-3a. Cell viability was measured by the MTS assay 3 days later.
DLD-1 cells or H358 cells were plated in 96-well plates at 2000 cells per well and treated with the indicated doses of (A) spm-3 or (B) spm-2. (C) Cell viability was measured by the MTS assay 3 days later. Similar experiment using GT41 fibroblasts with spm2 or spm 3. Each assay point represents an average of duplicates.
Control cells received neither 1a nor camptothecin.
After overnight attachment, triplicate wells were treated with increasing concentrations of inhibitor 1a or 1b. Control wells were left untreated. One day later, and again 2 days later, the medium in the wells was removed and replaced with fresh medium containing 1a or 1b.

[1] = system: histone H3 lysine 9 acetylation in H358 cells; assay: Western analysis of histone H3 lysine 9 acetylation/methylation; format: cell-based; conditions: for suppression of histone H3K9 acetylation: 50 μM, 12 hours post start of treatment
Protocol: (A) Structures of 1a, and the acetylated side chain of a lysine residue within the polypeptide chain of a protein targeted by the acetylating enzyme (R1 and R2 are the main chain elements on both sides of the lysyl residue). (B) [^3H]-thymidine incorporation into DNA of H358 cells pulsed for 6 hrs at three different time points after the addition of increasing concentrations of 1a, i.e., at 6-12 hrs (12 hr curve), at 18-24 hours (24 hr curve), or at 42-48 hrs (48 hr curve). Incorporation is represented as a percentage relative to control (untreated) cells. (C) Cell cycle analysis of propidium iodide-stained cells harvested at various times after addition of 50 μM 1a. % of cells in G1, S, and G2 represents the average of two independent profiles. (D) Western analysis of histone H3 lysine 9 acetylation, histone H3 lysine 56 acetylation, histone H3 lysine 9 methylation, and total histone H3, before “c” or at the indicated times after addition of 50 μM 1a. Each lane represents 60 μg cellular protein.
Each lane represents 175 μg cell lysate protein.
One 6 cm culture dish of H358 cells per treatment was used. Cells were treated with 50 μM spm-2, spm-3, or spd-3a for 12 hours. Histones were extracted from cells in 0.2M H2SO4 (as described in Furuta, T., et al (2003) J. Biol. Chem. 278: 20303-20312), followed by SDS-PAGE and Western blotting. Blots were probed with anti-acetyl histone H3-lysine 9 (Upstate Biotechnology, Inc.)
Cells were lysed by adding 1 mL of 0.2 M H2SO4. Histones were recovered as described in reference. SDS-PAGE/Western analysis was carried out as previously described using rabbit monoclonal antibody to total histone H3, rabbit polyclonal anti-trimethyl histone H3 (lysine 9), and anti-acetyl histone H3 (lysine 9). All antibodies were purchased from Upstate Biotechnology Inc. (Lake Placid, N.Y.).
In FIG. 2D, we carried out an immunoblot analysis of total histone H3, histone H3 acetylated on lysine 9 (H3-K9Ac), histone H3 acetylated on lysine 56 (H3-K56Ac) and histone H3 methylated on lysine 9 (H3-MeK9) in H358 cells, before treatment, and after 1, 12, 18, and 24 hours of treatment with 50 μM 1a. […] Acetylation levels are restored by 24 hours.
One 10-cm plate of H358 lung cancer cells (about 2×10^6 cells), grown in DMEM+10% Fetal bovine serum as described in reference, were treated for 24 hours with 50 μM1a inhibitor. Cells lysates were prepared as we have previously described (Lee C, et al., 2005, Cancer Res 65:9834-9842). Treated cells and untreated (control) cells were harvested by lysing in buffer containing 10 mM Hepes pH 7.5, 100 mM NaCl, 300 mM sucrose, 3 mM MgCl2, 1 mM EDTA, 1 mM DTT, 0.5% Triton X-100, 1 mM PMSF, protease inhibitor pellet (Roche) and analyzed on 10% SDS-PAGE gels, followed by Western immunoblot analysis of total histone H3, methylated histone H3 (methylated on lysine 9), and acetylated histone H3 (acetylated on lysine 9). […] Histone H3 methylation was not affected.

CC[C@@]1(O)C(=O)OCc2c1cc1n(c2=O)Cc2cc3ccccc3nc2-1 [camptothecin] was tested, and the “2-day cumulative cell viability relative to untreated, single agent” value (H358 lung cancer cells; 1a increasing concentrations, camptothecin 5 nM 18 hour) was “no effect”.
In the case of CC(=O)NCCSCC(=O)NCCCNCCCCNCCCN [spm-3], the “suppression of histone H3K9 acetylation” value [1] is reported as “suppress histone acetylation” and the “3-day cell viability, single agent” value (H358 lung cancer cells; single agent) is reported as “effective as single agents”.
With CC(=O)NCCSCC(=O)NCCCNCCCCN [3a] the “suppression of histone H3K9 acetylation” value [1] was “nearly complete ablation of histone H3K9 acetylation”, the “suppression of histone H3K9 acetylation” value ([1]; listed as spd-3a) was “suppress histone acetylation” and the “suppression of 3-day cell viability in combination with camptothecin” value (H358 lung cancer cells; 3a + CPT 5 nM 18 hours) was “effective”.
CC(C)(COP(=O)(O)OP(=O)(O)OC[C@H]1O[C@@H](n2cnc3c(N)ncnc32)[C@H](O)[C@@H]1OP(=O)(O)O)[C@@H](O)C(=O)NCCC(=O)NCCSCC(=O)NCCCNCCCCN [1a, spermidine[N1]-CoA] was tested, and the “effect on histone H3 lysine 9 methylation” value ([1]; 50 μM 1a) was “no effect”, the “histone H3 lysine 9 acetyl groups lost” value ([1]; 50 μM 1a, within 1 hour) was “over 50%” and the “histone H3 lysine 9 acetyl groups lost” value ([1]; 50 μM 1a, within 12 hours) was about 98%. For the same compound, the “histone H3 K9 acetyl groups lost” value ([1]; Example 1: 50 μM 1a, 24 hours, cell lysate) was “over 80%” and the “2-day cell viability, % of untreated cell viability” value (H358 lung cancer cells; 5 nM camptothecin + increasing concentrations of 1a) was “less than 10%”.
